Reference: the NIST ThermoML archive (doi:10.1021/je0301040)

Assay: xn = mol fraction of the nth substance listed

FC(Cl)(Cl)Cl [trichlorofluoromethane] + FC(F)Cl
Conditions	mass density [kg/m3]
230 K, 25860 kPa, Liquid, Pycnometric method, x1 = 0.8336	1641.63
230.01 K, 668.5 kPa, Liquid, Pycnometric method, x1 = 0.8336	1604.47
230.01 K, 1004 kPa, Liquid, Pycnometric method, x1 = 0.8336	1605.02
230.01 K, 2033.3 kPa, Liquid, Pycnometric method, x1 = 0.8336	1606.97
230.01 K, 2374.4 kPa, Liquid, Pycnometric method, x1 = 0.8336	1607.47
230.01 K, 2689.9 kPa, Liquid, Pycnometric method, x1 = 0.8336	1608.01
230.01 K, 3067 kPa, Liquid, Pycnometric method, x1 = 0.8336	1608.63
230.01 K, 3637.3 kPa, Liquid, Pycnometric method, x1 = 0.8336	1609.58
230.01 K, 12707 kPa, Liquid, Pycnometric method, x1 = 0.8336	1623.4
230.01 K, 65252 kPa, Liquid, Pycnometric method, x1 = 0.8336	1686.03
230.02 K, 1691.3 kPa, Liquid, Pycnometric method, x1 = 0.8336	1606.39
230.02 K, 38513 kPa, Liquid, Pycnometric method, x1 = 0.8336	1657.76
230.02 K, 51629 kPa, Liquid, Pycnometric method, x1 = 0.8336	1672.95
232.01 K, 344.5 kPa, Liquid, isochoric method, x1 = 0.832	1585.93
232.01 K, 367.9 kPa, Liquid, isochoric method, x1 = 0.832	1585.93
233.01 K, 1630.1 kPa, Liquid, isochoric method, x1 = 0.832	1585.8
234.01 K, 2889.9 kPa, Liquid, isochoric method, x1 = 0.832	1585.67
245.01 K, 363.7 kPa, Liquid, isochoric method, x1 = 0.832	1556.16
246.5 K, 2106.6 kPa, Liquid, isochoric method, x1 = 0.832	1555.98
248 K, 3843.5 kPa, Liquid, isochoric method, x1 = 0.832	1555.8
248 K, 3865.5 kPa, Liquid, isochoric method, x1 = 0.832	1555.8
248.01 K, 3870.3 kPa, Liquid, isochoric method, x1 = 0.832	1555.8
249 K, 4990.8 kPa, Liquid, isochoric method, x1 = 0.832	1555.68
264.5 K, 1262.1 kPa, Liquid, isochoric method, x1 = 0.832	1513.38
266.5 K, 3302.5 kPa, Liquid, isochoric method, x1 = 0.832	1513.15
268 K, 4830.1 kPa, Liquid, isochoric method, x1 = 0.832	1512.98
268 K, 4846.4 kPa, Liquid, isochoric method, x1 = 0.832	1512.98
269.99 K, 2096.8 kPa, Liquid, Pycnometric method, x1 = 0.8336	1502.82
269.99 K, 21561 kPa, Liquid, Pycnometric method, x1 = 0.8336	1541.21
269.99 K, 41933 kPa, Liquid, Pycnometric method, x1 = 0.8336	1573.88
270 K, 378 kPa, Liquid, Pycnometric method, x1 = 0.8336	1498.95
270 K, 696 kPa, Liquid, Pycnometric method, x1 = 0.8336	1499.67
270 K, 1081 kPa, Liquid, Pycnometric method, x1 = 0.8336	1500.54
270 K, 1383.8 kPa, Liquid, Pycnometric method, x1 = 0.8336	1501.23
270 K, 1742 kPa, Liquid, Pycnometric method, x1 = 0.8336	1502.02
270 K, 2410 kPa, Liquid, Pycnometric method, x1 = 0.8336	1503.54
270 K, 2708.1 kPa, Liquid, Pycnometric method, x1 = 0.8336	1504.16
270 K, 3130 kPa, Liquid, Pycnometric method, x1 = 0.8336	1505.05
270 K, 3854.5 kPa, Liquid, Pycnometric method, x1 = 0.8336	1506.62
270 K, 7625.3 kPa, Liquid, Pycnometric method, x1 = 0.8336	1514.59
270 K, 14726 kPa, Liquid, Pycnometric method, x1 = 0.8336	1528.68
270 K, 27467 kPa, Liquid, Pycnometric method, x1 = 0.8336	1551.32
270 K, 35271 kPa, Liquid, Pycnometric method, x1 = 0.8336	1563.81
270 K, 48894 kPa, Liquid, Pycnometric method, x1 = 0.8336	1583.8
270 K, 55535 kPa, Liquid, Pycnometric method, x1 = 0.8336	1592.86
270 K, 62211 kPa, Liquid, Pycnometric method, x1 = 0.8336	1601.52
288 K, 932.5 kPa, Liquid, isochoric method, x1 = 0.832	1464.29
290 K, 2670 kPa, Liquid, isochoric method, x1 = 0.832	1464.09
293 K, 5258.3 kPa, Liquid, isochoric method, x1 = 0.832	1463.78
293 K, 5259.5 kPa, Liquid, isochoric method, x1 = 0.832	1463.78
298.14 K, 1069.1 kPa, Liquid, Pycnometric method, x1 = 0.8336	1439.09
298.14 K, 1772.4 kPa, Liquid, Pycnometric method, x1 = 0.8336	1441.18
298.14 K, 2113.1 kPa, Liquid, Pycnometric method, x1 = 0.8336	1442.22
298.14 K, 2728.2 kPa, Liquid, Pycnometric method, x1 = 0.8336	1444.75
298.14 K, 3032.4 kPa, Liquid, Pycnometric method, x1 = 0.8336	1445.59
298.14 K, 21180 kPa, Liquid, Pycnometric method, x1 = 0.8336	1490.62
298.14 K, 49069 kPa, Liquid, Pycnometric method, x1 = 0.8336	1542.62
298.14 K, 63135 kPa, Liquid, Pycnometric method, x1 = 0.8336	1564.13
298.15 K, 390.2 kPa, Liquid, Pycnometric method, x1 = 0.8336	1436.97
298.15 K, 717.7 kPa, Liquid, Pycnometric method, x1 = 0.8336	1438.05
298.15 K, 1383.5 kPa, Liquid, Pycnometric method, x1 = 0.8336	1440.04
298.15 K, 2381.3 kPa, Liquid, Pycnometric method, x1 = 0.8336	1443.01
298.15 K, 2409.4 kPa, Liquid, Pycnometric method, x1 = 0.8336	1443.8
298.15 K, 3541.1 kPa, Liquid, Pycnometric method, x1 = 0.8336	1447.03
298.15 K, 7060.4 kPa, Liquid, Pycnometric method, x1 = 0.8336	1456.68
298.15 K, 14256 kPa, Liquid, Pycnometric method, x1 = 0.8336	1474.84
298.15 K, 27634 kPa, Liquid, Pycnometric method, x1 = 0.8336	1504
298.15 K, 35295 kPa, Liquid, Pycnometric method, x1 = 0.8336	1518.86
298.15 K, 42224 kPa, Liquid, Pycnometric method, x1 = 0.8336	1531.13
298.15 K, 56475 kPa, Liquid, Pycnometric method, x1 = 0.8336	1554.44
298.15 K, 67870 kPa, Liquid, Pycnometric method, x1 = 0.8336	1570.81
305.99 K, 2209.4 kPa, Liquid, isochoric method, x1 = 0.832	1419.96
305.99 K, 2209.7 kPa, Liquid, isochoric method, x1 = 0.832	1419.96
308.99 K, 4508.6 kPa, Liquid, isochoric method, x1 = 0.832	1419.67
311.99 K, 6798.4 kPa, Liquid, isochoric method, x1 = 0.832	1419.39
311.99 K, 6800.1 kPa, Liquid, isochoric method, x1 = 0.832	1419.39
319.98 K, 1419.4 kPa, Liquid, Pycnometric method, x1 = 0.8336	1381.39
319.98 K, 2419.9 kPa, Liquid, Pycnometric method, x1 = 0.8336	1385.12
319.99 K, 690.7 kPa, Liquid, Pycnometric method, x1 = 0.8336	1378.66
319.99 K, 1087.6 kPa, Liquid, Pycnometric method, x1 = 0.8336	1380.16
319.99 K, 1721.1 kPa, Liquid, Pycnometric method, x1 = 0.8336	1382.53
319.99 K, 2054.4 kPa, Liquid, Pycnometric method, x1 = 0.8336	1383.74
319.99 K, 2726 kPa, Liquid, Pycnometric method, x1 = 0.8336	1386.19
319.99 K, 3165.8 kPa, Liquid, Pycnometric method, x1 = 0.8336	1387.81
319.99 K, 3805.2 kPa, Liquid, Pycnometric method, x1 = 0.8336	1390.08
319.99 K, 7368.4 kPa, Liquid, Pycnometric method, x1 = 0.8336	1402.12
319.99 K, 13993 kPa, Liquid, Pycnometric method, x1 = 0.8336	1422.16
319.99 K, 20936 kPa, Liquid, Pycnometric method, x1 = 0.8336	1440.83
319.99 K, 27630 kPa, Liquid, Pycnometric method, x1 = 0.8336	1456.91
319.99 K, 35180 kPa, Liquid, Pycnometric method, x1 = 0.8336	1473.5
319.99 K, 42218 kPa, Liquid, Pycnometric method, x1 = 0.8336	1486.74
319.99 K, 49603 kPa, Liquid, Pycnometric method, x1 = 0.8336	1501.44
319.99 K, 56549 kPa, Liquid, Pycnometric method, x1 = 0.8336	1513.51
319.99 K, 62595 kPa, Liquid, Pycnometric method, x1 = 0.8336	1523.41
319.99 K, 66514 kPa, Liquid, Pycnometric method, x1 = 0.8336	1534.42
325.99 K, 1939.3 kPa, Liquid, isochoric method, x1 = 0.832	1362.85
328.99 K, 3911.9 kPa, Liquid, isochoric method, x1 = 0.832	1362.59
331.99 K, 5879.8 kPa, Liquid, isochoric method, x1 = 0.832	1362.33
331.99 K, 5890.5 kPa, Liquid, isochoric method, x1 = 0.832	1362.33
349.98 K, 353.7 kPa, Gas, isochoric method, x1 = 0.832	131.816
349.98 K, 1087.3 kPa, Liquid, Pycnometric method, x1 = 0.8336	1291.23
349.98 K, 1418.4 kPa, Liquid, Pycnometric method, x1 = 0.8336	1293.05
349.98 K, 1769.1 kPa, Liquid, Pycnometric method, x1 = 0.8336	1294.97
349.98 K, 2081.3 kPa, Liquid, Pycnometric method, x1 = 0.8336	1296.63
349.98 K, 2408.9 kPa, Liquid, Pycnometric method, x1 = 0.8336	1298.31
349.98 K, 2747.4 kPa, Liquid, Pycnometric method, x1 = 0.8336	1300.08
349.98 K, 3091.9 kPa, Liquid, Pycnometric method, x1 = 0.8336	1301.88
349.98 K, 7457.3 kPa, Liquid, Pycnometric method, x1 = 0.8336	1322.34
349.98 K, 14287 kPa, Liquid, Pycnometric method, x1 = 0.8336	1349.36
349.98 K, 20907 kPa, Liquid, Pycnometric method, x1 = 0.8336	1371.66
349.98 K, 35596 kPa, Liquid, Pycnometric method, x1 = 0.8336	1412.26
349.98 K, 42532 kPa, Liquid, Pycnometric method, x1 = 0.8336	1428.61
349.98 K, 49571 kPa, Liquid, Pycnometric method, x1 = 0.8336	1443.89
349.98 K, 56566 kPa, Liquid, Pycnometric method, x1 = 0.8336	1457.8
349.98 K, 62677 kPa, Liquid, Pycnometric method, x1 = 0.8336	1469.23
349.99 K, 3577.6 kPa, Liquid, Pycnometric method, x1 = 0.8336	1304.32
349.99 K, 27703 kPa, Liquid, Pycnometric method, x1 = 0.8336	1391.72
349.99 K, 68231 kPa, Liquid, Pycnometric method, x1 = 0.8336	1479.1
351.98 K, 3607.1 kPa, Liquid, isochoric method, x1 = 0.832	1298.78
354.98 K, 5239.3 kPa, Liquid, isochoric method, x1 = 0.832	1298.54
357.98 K, 6868 kPa, Liquid, isochoric method, x1 = 0.832	1298.31
357.98 K, 6868.5 kPa, Liquid, isochoric method, x1 = 0.832	1298.31
357.98 K, 6872.5 kPa, Liquid, isochoric method, x1 = 0.832	1298.31
357.98 K, 6876.5 kPa, Liquid, isochoric method, x1 = 0.832	1298.31
374.97 K, 140.1 kPa, Fluid (supercritical or subcritical phases), Burnett expansion method, x1 = 0.832	5.9076
374.97 K, 155.55 kPa, Fluid (supercritical or subcritical phases), Burnett expansion method, x1 = 0.832	6.5788
374.97 K, 572.06 kPa, Fluid (supercritical or subcritical phases), Burnett expansion method, x1 = 0.832	25.934
374.97 K, 705.75 kPa, Fluid (supercritical or subcritical phases), Burnett expansion method, x1 = 0.832	32.8139
374.97 K, 712.23 kPa, Fluid (supercritical or subcritical phases), Burnett expansion method, x1 = 0.832	33.1519
374.97 K, 775.25 kPa, Fluid (supercritical or subcritical phases), Burnett expansion method, x1 = 0.832	36.5414
374.97 K, 2140.4 kPa, Liquid, Pycnometric method, x1 = 0.8336	1209.34
374.97 K, 2454.5 kPa, Liquid, Pycnometric method, x1 = 0.8336	1211.8
374.97 K, 2781.1 kPa, Liquid, Pycnometric method, x1 = 0.8336	1214.3
